According to patent publication US11311539B2, “Compositions and methods for treatment of fragile X syndrome” (Children's Hospital Medical Center, priority 2015, dated 2022):
Entries after “also recorded” stand apart in the source; their conditions may differ.

Assays:
FXS KO mice [1] = conditions: literature; cited from earlier work
FXS KO mice [2] = conditions: literature; cited from earlier work; remark: listed apart in the source
FXS KO mice [3] = conditions: literature; cited from earlier work; remark: listed apart in the source
FXS KO mice [4] = conditions: preclinical literature; cited from earlier work
FXS KO mice [5] = conditions: preclinical literature; cited from earlier work; remark: listed apart in the source
Fmr1 KO mice [6] = assay: Acoustic startle paradigm (whole body flinch, Vmax); type: in vivo; conditions: adult Fmr1 KO mice
Protocol: In adulthood, Fmr1 KO mice have abnormal motor responses to sensory stimuli compared to WT mice in an acoustic startle paradigm.
(§1) Throughout experiments in Fmr1 KO mice, we treated animals with 1 mg/kg AZD7325, 3 mg/kg AZD7325 or vehicle (VEH) by oral gavage to mimic the human exposure route. Juvenile mice were treated acutely and adult mice were treated chronically prior to and throughout behavior analysis.
(§2) Audiogenic seizure susceptibility in Fmr1 KO mice, which is thought to be the result of increased neuronal activity in response to sensory stimuli, peaks around the third week of life and manifests as wild running which is typically followed by tonic-clonic seizure. […] In adulthood, Fmr1 KO mice have abnormal motor responses to sensory stimuli compared to WT mice in an acoustic startle paradigm. […] This type of deficit in the VEH-treated Fmr1 KO mice is reminiscent of the exaggerated anxiety responses people with FXS commonly display.

Fmr1 KO mice [7] = assay: Audiogenic seizure susceptibility (120 dB siren); type: in vivo; conditions: oral gavage, acute, 30 min prior to testing, juvenile mice, VEH approximately 60%
Protocol: as §1, §2

Fmr1 KO mice [8] = assay: Conditioned fear response to mild foot shock (cued portion); type: in vivo; conditions: both dose levels (1 and 3 mg/kg), oral gavage, KO mice vs WT
Protocol: as §1, §2

Fmr1 KO mice [9] = assay: Novel object recognition paradigm; type: in vivo; conditions: low dose (1 mg/kg), oral gavage, KO mice vs KO+VEH
Protocol: as §1, §2
Based upon preclinical data in FXS implicating insufficient GABA(A) activity in the pathophysiology of the disorder combined with preclinical and human evidence (unpublished data) supporting the tolerability and effectiveness of improving aberrant behavior, 4-amino-8-(2-fluoro-6-methoxy-phenyl)-N-propyl-cinnoline-3-carboxamide is an ideal molecule to develop as a clinical treatment in humans with FXS.

For `Oc1noc2c1CCNC2` [gaboxadol], the “Neuron excitability deficits in the amygdala” value (FXS KO mice [1]) is listed as “restored neuron excitability deficits in the amygdala”, the Hyperactivity (FXS KO mice [2]) is listed as “reduced hyperactivity” and the “Prepulse inhibition (PPI) alterations” value (FXS KO mice [3]) is listed as “reduced prepulse inhibition (PPI) alterations”.

For `CC(=O)[C@H]1CC[C@H]2[C@@H]3CC[C@H]4C[C@H](O)CC[C@]4(C)[C@H]3C(=O)C[C@]12C` [alphaxalone], the Audiogenic seizures (FXS KO mice [4]) is listed as “rescue of audiogenic seizures” and the Anxiety (FXS KO mice [5]) is listed as “reductions in anxiety”.

In the case of `CCCNC(=O)c1nnc2c(-c3c(F)cccc3OC)cccc2c1N` [AZD7325, 4-amino-8-(2-fluoro-6-methoxy-phenyl)-N-propyl-cinnoline-3-carboxamide], the “Whole body flinching, low-level acoustic startle” value (Fmr1 KO mice [6]; 82 db white noise burst, 10 trial blocks, chronic low dose) is reported as “significantly reduced whole body flinching”, the “Whole body flinch response, high level acoustic stimulus” value (Fmr1 KO mice [6]; 120 dB stimulus, chronic treatment) is reported as “improves this response to WT levels” and the “Fmr1 KO mice displaying wild running followed by seizure” value (Fmr1 KO mice [7]; high dose (3 mg/kg)) is reported as 0%. The “Fmr1 KO mice displaying wild running followed by seizure” value (Fmr1 KO mice [7]; low dose (1 mg/kg)) was 11%, the “Conditioned fear response, cued portion of the test” value (Fmr1 KO mice [8]) was “normalizing this behavior in KO mice” and the “Object memory in novel object recognition (discrimination index)” value (Fmr1 KO mice [9]) was “attenuates deficits in object memory”. The “Object memory in novel object recognition (discrimination index)” value (Fmr1 KO mice [9]; listed as 4-amino-8-(2-fluoro-6-methoxy-phenyl)-N-propyl-cinnoline-3-carboxamide) was “attenuates deficits in object memory; also recorded: greater interest in the novel object”.
